The term IC50 denotes the concentration needed to halve the response being measured.

In ChEMBL document CHEMBL4765279, “Discovery of a novel series of imidazo[1',2':1,6]pyrido[2,3-d]pyrimidin derivatives as potent cyclin-dependent kinase 4/6 inhibitors” (Eur J Med Chem, 2020) one finds IC50 and Activity data, which are given here for 24 compounds.

A value given as a limit tells only on which side of the number the result lay.

Assay [1] has as its system COLO 205. Briefly: Antiproliferative activity against human COLO 205 cells assessed as cell growth inhibition measured after 4 to 6 days by celltiter-glo luminescent cell viability assay. It counts as functional, cell-based. On the technique in general: In ATP-based viability assays light output follows the ATP content of the culture.
A further assay concerns the target CDK6/Cyclin D3 (Homo sapiens, UniProt Q00534). Briefly: Inhibition of human full-length N-terminal GST tagged CDK6 (1 to 326 residues)/GST-tagged cyclinD3 (1 to 292 residues) expressed in baculovirus expression system using ULight-elF4E-binding protein 1 peptide as substrate measured after 30 mins by LANCE assay.
Another assay has as its target CDK4/Cyclin D3 (Homo sapiens, UniProt P11802). The experiment in a line: Inhibition of recombinant human full-length N-terminal GST-fused CDK4 (1 to 303 residues)/GST-tagged CyclinD3 (1 to 292 residues) expressed in baculovirus expression system using ULight-elF4E-binding protein 1 peptide as substrate measured after 30 mins by LANCE assay.
A further assay deals with U-87 MG. Briefly: Antiproliferative activity against human U-87 MG cells assessed as cell growth inhibition measured after 4 to 6 days by celltiter-glo luminescent cell viability assay. It counts as functional, cell-based, U-87MG ATCC.
The next assay concerns MDA-MB-468. Briefly: Antiproliferative activity against human MDA-MB-468 cells assessed as cell growth inhibition measured after 4 to 6 days by celltiter-glo luminescent cell viability assay. It counts as functional, cell-based.
Assay [2] deals with COLO 205. The experiment in a line: Cell cycle arrest in human COLO 205 cells assessed as accumulation at G0/G1 phase at 200 nM measured after 24 hrs by propidium iodide staining based flow cytometry relative to control. It counts as functional.

Sequence of CDK4/Cyclin D3 (P11802 whole entry, the tested form may be a part): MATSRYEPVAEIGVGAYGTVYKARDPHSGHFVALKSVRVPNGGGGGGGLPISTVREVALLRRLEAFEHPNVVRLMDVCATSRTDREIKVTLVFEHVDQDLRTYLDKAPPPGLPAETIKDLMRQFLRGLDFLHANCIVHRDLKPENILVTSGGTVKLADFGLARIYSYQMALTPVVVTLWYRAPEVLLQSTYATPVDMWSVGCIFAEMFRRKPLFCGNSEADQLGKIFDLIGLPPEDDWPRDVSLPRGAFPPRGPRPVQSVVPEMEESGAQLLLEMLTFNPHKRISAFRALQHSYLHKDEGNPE
Sequence of CDK4/Cyclin D3 (P30281 whole entry, further chain, the tested form may be a part): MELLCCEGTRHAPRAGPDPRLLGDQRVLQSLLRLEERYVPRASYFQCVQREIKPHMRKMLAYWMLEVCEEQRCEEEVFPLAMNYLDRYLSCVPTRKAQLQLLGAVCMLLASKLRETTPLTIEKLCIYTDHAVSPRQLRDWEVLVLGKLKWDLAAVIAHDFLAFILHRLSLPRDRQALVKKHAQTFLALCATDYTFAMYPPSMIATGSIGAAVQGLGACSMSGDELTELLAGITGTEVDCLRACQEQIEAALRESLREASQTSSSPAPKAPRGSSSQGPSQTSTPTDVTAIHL
Sequence of CDK6/Cyclin D3 (Q00534 whole entry, looked up, the tested form may be a part): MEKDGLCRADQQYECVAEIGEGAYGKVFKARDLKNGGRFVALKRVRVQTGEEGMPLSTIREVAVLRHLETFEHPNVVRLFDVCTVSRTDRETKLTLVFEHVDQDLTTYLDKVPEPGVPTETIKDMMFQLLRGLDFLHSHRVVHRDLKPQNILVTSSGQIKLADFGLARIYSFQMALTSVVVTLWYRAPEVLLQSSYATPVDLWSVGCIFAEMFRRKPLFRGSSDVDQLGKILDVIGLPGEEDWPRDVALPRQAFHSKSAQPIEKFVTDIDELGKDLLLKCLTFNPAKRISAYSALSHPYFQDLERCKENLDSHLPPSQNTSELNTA

Turning to `CC(=O)c1c(C)c2cnc(Nc3ccc(N4CCC(N(C)C)C4)cn3)nc2n2cc(C(C)C)nc12` (stereo not given), the IC50 in the assay with COLO 205 [1] turned out to be 1420 nM; on CDK6/Cyclin D3 it was 4.3 nM; at CDK4/Cyclin D3, 4.5 nM; in the assay on U-87 MG, 536 nM.

Take `CC(=O)c1c(C)c2cnc(Nc3ccc4c(n3)CCN(CCN(C)C)C4)nc2n2cc(C(C)C)nc12`: the IC50 stood at 324 nM in the assay with COLO 205 [1], 5.1 nM on CDK6/Cyclin D3, 4.2 nM at CDK4/Cyclin D3 and 249 nM in the assay on U-87 MG.

In the case of `Cc1cn2c(n1)c(C#N)c(C)c1cnc(Nc3ccc(Br)cc3)nc12`, the IC50 at CDK6/Cyclin D3 was 924 nM; on CDK4/Cyclin D3 it was above 3330 nM.

Consider `CCN1CCN(Cc2ccc(Nc3ncc(F)c(-c4cc(F)c5nc(C)n(C(C)C)c5c4)n3)nc2)CC1` [ABEMACICLIB], for which, in the assay with MDA-MB-468, the IC50 turned out to be 1140 nM. Further, the Activity in the assay with COLO 205 [2] is 95.3%.

For the compound `CC(=O)c1c(C)c2cnc(Nc3ccc4c(n3)CCNC4)nc2n2cc(C(C)C)nc12`, the IC50 in the assay with COLO 205 [1] was found to be 5740 nM; on CDK6/Cyclin D3 it was 23.1 nM; at CDK4/Cyclin D3, 9.9 nM; in the assay with U-87 MG, 3720 nM.

`Cc1cn2c(n1)c(C#N)c(C)c1cnc(Nc3ccccc3)nc12`: the values for the IC50 on CDK6/Cyclin D3 and on CDK4/Cyclin D3 were 112 nM and 98.9 nM, respectively.

In the case of `CC(=O)c1c(C)c2cnc(Nc3ccc(CN4CCNCC4)cn3)nc2n2cc(C(C)C)nc12`, the IC50 with COLO 205 [1] came to 356 nM; at CDK6/Cyclin D3, 2.5 nM; on CDK4/Cyclin D3 it was 2.2 nM; in the assay on U-87 MG, 165 nM.

As for `CC(=O)c1c(C)c2cnc(Nc3ccc(N4CCNCC4)cc3)nc2n2cc(C3CCCCC3)nc12`, the IC50 in the assay on COLO 205 [1] amounted to 121 nM; on CDK6/Cyclin D3, 22.2 nM; at CDK4/Cyclin D3 it was 18.9 nM; in the assay on U-87 MG, 122 nM.

In the case of `CC(=O)c1c(C)c2cnc(Nc3ccc(C(=O)N4CCNCC4)cn3)nc2n2cc(C(C)C)nc12`, the IC50 in the assay with COLO 205 [1] worked out at 932 nM; at CDK6/Cyclin D3, 5.6 nM; at CDK4/Cyclin D3 it was 5.3 nM; in the assay on U-87 MG it was 380 nM.

Consider `CC(=O)c1c(C)c2cnc(Nc3ccc(N4CCNCC4)cc3)nc2n2cc(C)nc12`, for which the IC50 in the assay with COLO 205 [1] came out at 583 nM; at CDK6/Cyclin D3, 10.2 nM; on CDK4/Cyclin D3, 3.6 nM; in the assay with U-87 MG, 1260 nM.

As to `CCOC(=O)c1cn2c(n1)c(C(C)=O)c(C)c1cnc(Nc3ccc(N4CCNCC4)cc3)nc12`, the IC50 was 2840 nM in the assay on COLO 205 [1], 86.6 nM on CDK6/Cyclin D3, 22.3 nM at CDK4/Cyclin D3 and above 10000 nM in the assay on U-87 MG.

With `CC(=O)c1c(C)c2cnc(Nc3ccc(N4CCNCC4)cc3)nc2n2cc(C3CCCC3)nc12`, the IC50 in the assay with COLO 205 [1] was 73.4 nM; on CDK6/Cyclin D3 it was 5.9 nM; at CDK4/Cyclin D3, 4.7 nM; in the assay with U-87 MG, 64.8 nM.

Regarding `Cc1cn2c(n1)c(C#N)c(C)c1cnc(Nc3ccc(Cl)cc3)nc12`, the IC50 on CDK6/Cyclin D3 was 280 nM; on CDK4/Cyclin D3 it was 271 nM.

As for `CC(=O)c1c(C)c2cnc(Nc3ccc(N4CC5(CCOCC5)C4)cn3)nc2n2cc(C(C)C)nc12`, the IC50 was determined as 534 nM in the assay with COLO 205 [1], 25.7 nM on CDK6/Cyclin D3, 9.9 nM at CDK4/Cyclin D3 and 539 nM in the assay with U-87 MG.

On to `CC(=O)c1c(C)c2cnc(Nc3ccc(N4CCNCC4)cn3)nc2n2cc(C(C)C)nc12`, for which the IC50 in the assay with COLO 205 [1] stood at 290 nM; at CDK6/Cyclin D3 it was 3.7 nM; at CDK4/Cyclin D3 it was 3.7 nM; with U-87 MG, 291 nM.

Turning to `CC(=O)c1c(C)c2cnc(Nc3ccc(N4CCNCC4)cn3)nc2n(C2CCCC2)c1=O` [PALBOCICLIB], the IC50 with COLO 205 [1] came out at 301 nM; in the assay with MDA-MB-468, 5420 nM; in the assay with U-87 MG it was 345 nM. The Activity with COLO 205 [2] came to 95.7%.

`CC(=O)c1c(C)c2cnc(Nc3ccc(N4CCC5(CCNC5)C4)cn3)nc2n2cc(C(C)C)nc12` (stereo not given): the IC50 in the assay on COLO 205 [1] turned out to be 1280 nM; at CDK6/Cyclin D3, 3.8 nM; on CDK4/Cyclin D3, 4 nM; with U-87 MG, 719 nM.

For `Cc1cn2c(n1)c(C#N)c(C)c1cnc(Nc3ccc(N4CCOCC4)cc3)nc12`, the IC50 on CDK6/Cyclin D3 amounted to 110 nM; on CDK4/Cyclin D3, 123 nM.

Take `CNCCN1CCc2nc(Nc3ncc4c(C)c(C(C)=O)c5nc(C(C)C)cn5c4n3)ccc2C1`: the IC50 came out at 639 nM in the assay with COLO 205 [1], 7.1 nM at CDK6/Cyclin D3, 2.7 nM on CDK4/Cyclin D3 and 184 nM in the assay on U-87 MG.

For the compound `Cc1cn2c(n1)c(C#N)c(C)c1cnc(Nc3ccc(N4CCNCC4)cc3)nc12`, the results for the IC50 on CDK6/Cyclin D3 and on CDK4/Cyclin D3 were 33.6 nM and 26.5 nM, respectively.

Take `Cc1cn2c(n1)c(C#N)c(C)c1cnc(N)nc12`: the IC50 on CDK6/Cyclin D3 was determined as 3090 nM; on CDK4/Cyclin D3, 592 nM.

As for `Cc1c(C#N)c2nc(C(C)C)cn2c2nc(Nc3ccc(N4CCNCC4)cc3)ncc12`, the results for the IC50 at CDK6/Cyclin D3, at CDK4/Cyclin D3 and in the assay with U-87 MG were 9 nM, 10.3 nM and 585 nM, respectively.

Regarding `CC(=O)c1c(C)c2cnc(Nc3ccc(N4CCNCC4)cc3)nc2n2cc(C(=O)N3CCCC3)nc12`, the IC50 at CDK6/Cyclin D3 is 150 nM; on CDK4/Cyclin D3, 59 nM; in the assay on U-87 MG, above 10000 nM.

For the compound `CC(=O)c1c(C)c2cnc(Nc3ccc(N4CCNCC4)cc3)nc2n2cc(-c3ccccc3)nc12`, the IC50 worked out at 474 nM in the assay with COLO 205 [1], 32.8 nM on CDK6/Cyclin D3, 13.5 nM on CDK4/Cyclin D3 and 412 nM in the assay on U-87 MG.
